Experimental data from ChEMBL document CHEMBL4229536, “In vitro and in vivo pharmacokinetic and pharmacodynamic study of MBRI-001, a deuterium-substituted plinabulin derivative as a potent anti-cancer agent” (Bioorg Med Chem, 2018).

Legend:
[1] = Drug uptake in Wistar rat liver at 6 mg/kg, iv measured after 1 hr; assay type: ADME, organism-based; conditions: in vivo
[2] = Drug uptake in Wistar rat kidney at 6 mg/kg, iv measured after 0.5 hrs; assay type: ADME, organism-based; conditions: in vivo
[3] = Drug uptake in Wistar rat heart at 6 mg/kg, iv measured after 8 hrs; assay type: ADME, organism-based; conditions: in vivo
[4] = Drug uptake in Wistar rat spleen at 6 mg/kg, iv measured after 4 hrs; assay type: ADME, organism-based; conditions: in vivo
[5] = MRTlast in Wistar rat at 8 mg/kg, iv; assay type: ADME, organism-based; conditions: in vivo
[6] = Drug excretion in Wistar rat feces at 4 mg/kg, iv measured after 12 hrs; assay type: ADME, organism-based; conditions: faeces, read-out: Drug excretion
[7] = Stability in rat plasma at 1 uM after 10 mins by LC-MS/MS analysis; assay type: ADME, cell-free; conditions: read-out: Stability
[8] = Half life in Wistar rat at 4 mg/kg, iv; assay type: ADME, organism-based; conditions: in vivo
[9] = Clearance in rat liver microsomes at 50 uM in presence of NADPH by LC-MS/MS analysis; assay type: ADME, microsome; conditions: read-out: CLH
[10] = Drug uptake in Wistar rat small intestine at 6 mg/kg, iv measured after 8 hrs; assay type: ADME, organism-based; conditions: in vivo
[11] = Drug uptake in Wistar rat pancreas at 6 mg/kg, iv measured after 0.5 hrs; assay type: ADME, organism-based; conditions: in vivo
NCI-H460 [12] = assay: Antitumor activity against human NCI-H460 cells xenografted in nude mouse assessed as inhibition of tumor volume at 6 mg/kg, iv administered once in every 2 days for 14 consecutive days cotreated with 50 mg/kg gefitinib once daily for 14 consecutive days relative to control; assay type: functional
[13] = Cmax in Wistar rat at 8 mg/kg, iv; assay type: ADME, organism-based; parameters: dose 8 mg/kg, route intravenous; conditions: in vivo
[14] = Drug uptake in Wistar rat kidney at 6 mg/kg, iv measured after 1 hr; assay type: ADME, organism-based; conditions: in vivo
Mus musculus = assay: Toxicity in nude mouse xenografted with human NCI-H460 cells assessed as death at 3 to 6 mg/kg, iv administered once in every 2 days for 14 consecutive days cotreated with 25 to 50 mg/kg gefitinib once daily for 14 consecutive days; assay type: organism-based; conditions: in vivo, 48 h
Cytochrome P450 1A2 = biological target: T1, Cytochrome P450 1A2 (Homo sapiens, UniProt P05177); assay: Inhibition of CYP1A2 in human liver microsomes preincubated for 10 mins followed by NADPH addition measured after 10 mins by LC-MS/MS analysis; assay type: ADME
T1 sequence (P05177 whole entry): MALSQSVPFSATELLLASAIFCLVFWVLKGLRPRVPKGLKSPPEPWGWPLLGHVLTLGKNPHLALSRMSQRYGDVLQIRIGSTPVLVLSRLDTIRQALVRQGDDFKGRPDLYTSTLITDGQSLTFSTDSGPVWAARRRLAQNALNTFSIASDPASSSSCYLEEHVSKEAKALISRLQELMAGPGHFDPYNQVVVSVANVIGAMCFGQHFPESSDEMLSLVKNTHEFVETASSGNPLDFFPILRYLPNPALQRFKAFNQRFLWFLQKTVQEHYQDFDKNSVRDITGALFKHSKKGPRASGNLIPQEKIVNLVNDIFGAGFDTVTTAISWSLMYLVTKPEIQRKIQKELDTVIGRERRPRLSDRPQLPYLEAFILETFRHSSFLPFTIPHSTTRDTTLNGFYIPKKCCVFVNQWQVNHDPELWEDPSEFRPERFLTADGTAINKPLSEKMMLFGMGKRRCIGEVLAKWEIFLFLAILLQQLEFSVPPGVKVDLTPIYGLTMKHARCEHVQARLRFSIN

NCI-H460 [15] = assay: Antitumor activity against human NCI-H460 cells xenografted in nude mouse assessed as inhibition of tumor weight at 9 mg/kg, iv administered once in every 2 days for 14 consecutive days relative to control; assay type: functional; conditions: 48 h
[16] = Half life in Wistar rat at 8 mg/kg, iv; assay type: ADME, organism-based; conditions: in vivo
Cytochrome P450 2C9 = Cytochrome P450 2C9 (Homo sapiens, UniProt P11712); assay: Inhibition of CYP2C9 in human liver microsomes preincubated for 10 mins followed by NADPH addition measured after 10 mins by LC-MS/MS analysis; assay type: ADME
[17] = Drug excretion in Wistar rat feces at 4 mg/kg, iv measured after 24 hrs; assay type: ADME, organism-based; conditions: faeces, read-out: Drug excretion
[18] = Drug uptake in Wistar rat brain at 6 mg/kg, iv measured after 1 hr; assay type: ADME, organism-based; conditions: in vivo
[19] = Drug excretion in Wistar rat feces at 4 mg/kg, iv measured after 4 hrs; assay type: ADME, organism-based; conditions: faeces, read-out: Drug excretion
[20] = Drug excretion in Wistar rat urine at 4 mg/kg, iv measured after 36 hrs; assay type: ADME, organism-based; conditions: read-out: Drug excretion
[21] = Drug uptake in Wistar rat pancreas at 6 mg/kg, iv measured after 12 hrs; assay type: ADME, organism-based; conditions: in vivo
[22] = Drug excretion in Wistar rat feces at 4 mg/kg, iv measured after 36 hrs; assay type: ADME, organism-based; conditions: faeces, read-out: Drug excretion
[23] = Drug uptake in Wistar rat liver at 6 mg/kg, iv measured after 4 hrs; assay type: ADME, organism-based; conditions: in vivo

Cytochrome P450 2C9, sequence (P11712 whole entry): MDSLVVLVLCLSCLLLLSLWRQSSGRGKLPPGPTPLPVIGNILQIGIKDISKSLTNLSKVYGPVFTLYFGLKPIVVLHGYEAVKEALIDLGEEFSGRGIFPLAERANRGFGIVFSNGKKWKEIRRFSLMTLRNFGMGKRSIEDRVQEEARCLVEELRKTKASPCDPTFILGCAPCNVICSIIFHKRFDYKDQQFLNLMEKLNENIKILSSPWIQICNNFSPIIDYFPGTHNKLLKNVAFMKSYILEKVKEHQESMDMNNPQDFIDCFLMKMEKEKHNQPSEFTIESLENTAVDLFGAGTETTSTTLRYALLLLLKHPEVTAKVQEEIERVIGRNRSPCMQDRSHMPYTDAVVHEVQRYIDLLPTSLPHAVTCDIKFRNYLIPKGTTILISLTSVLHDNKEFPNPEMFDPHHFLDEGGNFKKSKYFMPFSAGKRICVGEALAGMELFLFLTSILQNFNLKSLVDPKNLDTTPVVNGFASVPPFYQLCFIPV

## [2H]/C(c1nc[nH]c1C(C)(C)C)=c1/[nH]c(=O)/c(=C/c2ccccc2)[nH]c1=O
[1]
  Drug uptake: 8791.2 ng/mL/g
[2]
  Drug uptake: 7423.8 ng/mL/g
[3]
  Drug uptake: 88 ng/mL/g
[4]
  Drug uptake: 1519.6 ng/mL/g
[5]
  MRT last: 57.6 min
[6]
  dose excreted at 12 h: 0.12%
[7]
  remaining at 10 min, 1 µM: 96.8%
[8]
  half-life: 136 min
[9]
  microsomal CLint at 50 µM: 16.3 µL/min/mg
[10]
  Drug uptake: 160 ng/mL/g
[11]
  Drug uptake: 7096.2 ng/mL/g
NCI-H460 [12]
  inhibition (INH): 67.8%
[13]
  Cmax: 20100 ng/mL
[14]
  Drug uptake: 6768.5 ng/mL/g
Mus musculus
  Activity: Non-Toxic
Cytochrome P450 1A2
  IC50: 1020 nM
NCI-H460 [15]
  inhibition in vivo at 9 mg/kg: 58.7%
[16]
  half-life: 137 min
Cytochrome P450 2C9
  IC50: 560 nM
[17]
  dose excreted at 24 h: 5.65%
[18]
  Drug uptake: 561 ng/mL/g
[19]
  dose excreted at 4 h: 0.11%
[20]
  dose excreted at 36 h: 0.23%
[21]
  Drug uptake: 68.2 ng/mL/g
[22]
  dose excreted at 36 h: 5.85%
[23]
  Drug uptake: 4220 ng/mL/g
